Type in all cases: cell-based
One assay addresses T1, human TLR9 (Homo sapiens, UniProt Q9NR96).
T1 construct: expressed in transfected cells; host or cells: HEK293 (ATCC No. CRP-1573 [sic])
T1 sequence (Q9NR96 26-1032): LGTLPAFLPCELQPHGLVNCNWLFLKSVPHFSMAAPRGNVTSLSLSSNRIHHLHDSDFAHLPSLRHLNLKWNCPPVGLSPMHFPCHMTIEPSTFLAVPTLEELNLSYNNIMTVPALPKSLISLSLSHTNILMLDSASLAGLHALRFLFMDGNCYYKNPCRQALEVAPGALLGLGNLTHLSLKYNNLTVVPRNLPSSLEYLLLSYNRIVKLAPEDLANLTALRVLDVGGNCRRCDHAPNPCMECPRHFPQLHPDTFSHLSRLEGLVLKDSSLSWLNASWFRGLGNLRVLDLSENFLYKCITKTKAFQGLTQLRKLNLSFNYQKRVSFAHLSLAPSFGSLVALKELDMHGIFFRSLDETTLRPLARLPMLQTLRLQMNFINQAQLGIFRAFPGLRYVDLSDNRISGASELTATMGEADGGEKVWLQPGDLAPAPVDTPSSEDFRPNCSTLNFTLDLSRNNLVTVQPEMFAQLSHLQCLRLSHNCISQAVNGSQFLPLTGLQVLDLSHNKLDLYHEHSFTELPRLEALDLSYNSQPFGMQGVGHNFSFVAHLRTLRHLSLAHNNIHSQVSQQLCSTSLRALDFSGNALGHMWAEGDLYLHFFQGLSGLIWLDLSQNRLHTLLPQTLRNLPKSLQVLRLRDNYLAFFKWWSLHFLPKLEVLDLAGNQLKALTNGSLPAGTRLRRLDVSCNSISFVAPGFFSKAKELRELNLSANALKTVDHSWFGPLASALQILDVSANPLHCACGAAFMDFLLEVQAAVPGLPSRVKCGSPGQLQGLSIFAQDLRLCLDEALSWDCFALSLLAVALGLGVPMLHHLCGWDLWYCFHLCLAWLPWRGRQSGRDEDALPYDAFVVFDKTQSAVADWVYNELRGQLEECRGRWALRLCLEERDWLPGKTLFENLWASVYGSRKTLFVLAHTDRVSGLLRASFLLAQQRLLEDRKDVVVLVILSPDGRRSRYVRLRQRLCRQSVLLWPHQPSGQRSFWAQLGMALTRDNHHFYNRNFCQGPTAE
The assay can be described thus: Primary assay: HEK/TLR9 activation (NF-kB luciferase reporter, Oligo CpG 2006 stimulation). The source says: A. Primary Assay. The primary assay involved transfecting human embryonic kidney epithelial (HEK) cells with TLR9. More specifically, HEK293 […] cells (ATCC No. CRP-1573, American Type Culture Collection, Manassas, Va.) were transfected with pcDNA3.1D/V5-His-TOPO® plasmid (Invitrogen, Carlsbad, Calif.) encoding human TLR9 (directly inserted as a Tag polymerase-amplified PCR product) and firefly luciferase under the control of three NF-kB binding sites contained in the E-selectin-1 promoter, which was cloned into a pGL3-Enhancer Vector (Promega Corp, Madison, Wis.). Each compound was added to cells 30 min. before stimulation with Oligo CpG 2006, a synthetic phosphorothioate oligonucleotide (Hartmann et al., J Immunol. 164:1617-24 (2000)), with nucleotide sequence 5′-TCGTCGTTTTGTCGTTTTGTCGTT-3′ (SEQ ID NO:1). The cells were incubated overnight at 37° C. The luciferase substrate Steady-Glo® (Promega) was added to the wells, and luminescence was measured to determine the extent of TLR9-driven gene activation. The luminescence data was used to calculate an IC50 for each sample. The IC50 is defined as the concentration of compound that suppresses the luminescence to 50% of that observed in the absence of compound, in other words, with full stimulation.
A general note: Reporter assays use an easily measured gene product as a stand-in for the process of interest.

The target of a further assay is T2, human TLR7 (Homo sapiens, UniProt Q9NYK1).
T2 construct: expressed in transfected cells; host or cells: HEK cell line (HEK293, as in the primary assay)
T2 sequence (Q9NYK1 27-1049): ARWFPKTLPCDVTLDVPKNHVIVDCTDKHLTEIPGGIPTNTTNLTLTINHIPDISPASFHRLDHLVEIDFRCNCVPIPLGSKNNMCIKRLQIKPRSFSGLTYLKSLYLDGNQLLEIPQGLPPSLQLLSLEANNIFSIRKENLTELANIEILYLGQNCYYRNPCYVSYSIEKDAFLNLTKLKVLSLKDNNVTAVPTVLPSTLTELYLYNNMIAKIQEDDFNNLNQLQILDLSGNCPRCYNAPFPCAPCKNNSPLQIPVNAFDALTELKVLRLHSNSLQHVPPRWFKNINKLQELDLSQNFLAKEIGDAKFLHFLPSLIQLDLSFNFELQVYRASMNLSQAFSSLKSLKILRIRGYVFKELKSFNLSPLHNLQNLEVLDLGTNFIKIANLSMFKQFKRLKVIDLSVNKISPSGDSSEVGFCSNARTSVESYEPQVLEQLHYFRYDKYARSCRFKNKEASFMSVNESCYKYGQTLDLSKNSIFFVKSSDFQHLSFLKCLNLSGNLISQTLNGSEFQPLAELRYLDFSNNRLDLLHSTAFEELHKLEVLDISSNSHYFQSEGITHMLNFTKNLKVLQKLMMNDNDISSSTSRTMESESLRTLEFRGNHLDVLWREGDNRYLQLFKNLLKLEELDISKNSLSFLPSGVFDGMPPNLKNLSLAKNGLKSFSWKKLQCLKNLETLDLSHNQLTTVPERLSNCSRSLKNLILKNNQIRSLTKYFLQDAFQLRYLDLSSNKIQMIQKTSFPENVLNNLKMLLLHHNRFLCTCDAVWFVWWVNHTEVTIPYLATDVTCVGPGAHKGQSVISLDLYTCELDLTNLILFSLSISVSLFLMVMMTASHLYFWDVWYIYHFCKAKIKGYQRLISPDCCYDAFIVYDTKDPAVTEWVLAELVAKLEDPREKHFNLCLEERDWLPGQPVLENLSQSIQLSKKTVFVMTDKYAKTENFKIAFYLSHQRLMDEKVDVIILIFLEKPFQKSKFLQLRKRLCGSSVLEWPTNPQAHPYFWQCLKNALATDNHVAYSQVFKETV
The assay can be described thus: HEK/TLR7 activation assay (R848 stimulation). As to conditions: HEK cells transfected with human TLR7. Here is the method: (1) HEK/TLR7Activation Assay: The same compounds were tested in the same way as the primary assay with the following differences. The plasmid used to transfect the HEK cell line encoded for human TLR7 instead of TLR9, and R848 was used to stimulate the cells instead of Oligo CpG 2006.

In assay [1] the test system is dissociated mouse splenocytes. The assay can be described thus: Spleen CellTiter-Glo viability assay. To be noted: Splenocyte, 72 hours, viability (ATP). On the procedure:
(3) Spleen CT Glo Assay: To determine if compounds had adverse effects on living cells, dissociated mouse splenocytes were incubated with some of the compounds for 72 hours. At the end of the incubation Celliter-Glo™ reagent (Promega Corporation, Madison, Wis.) was added and luminescence was read per manufacturer's instructions. This reagent measures ATP as an indication of cell metabolism. Dead cells will not produce signal. IC50 is defined as the concentration of compound that suppresses viability to 50% of that observed in the absence of compound. The few compounds that measurably affected viability did so at concentrations far above those that affected cytokine release in response to TLR9 stimulation.
(Cellular ATP, detected with luciferase, serves as a proxy for viable cell number.)

The test system of assay [2] is mouse spleen IL-6 production in response to Oligo CpG 1668. Briefly: Splenocyte CpG 1668 assay (IL-6 ELISA). To be noted: mouse splenocytes, Oligo CpG 1668, 72 hrs. On the procedure: (2) Splenocyte CpG 1668 Assay: Some of the compounds tested in the primary assay were also assayed for suppression of mouse spleen IL-6 production in response to stimulation with Oligo CpG 1668, a synthetic phosphorothioate oligonucleotide (Krieg et al. Nature. 374:546-9 (1995)), with nucleotide sequence [NT] (SEQ ID NO:2). Each compound was added to dissociated splenocytes before addition of stimulatory oligonucleotide. Cells were stimulated in culture for 72 hrs and the supernatant was removed for ELISA analysis of IL-6 level. Here the IC50 is defined as the concentration of compound that suppresses cytokine production to 50% of that observed in the absence of compound, i.e., full stimulation.
On the technique in general: ELISA stands for enzyme-linked immunosorbent assay.

Where [3] appears, read: HEK293 transfected with human TLR9 and NF-kB luciferase, compound 30 min before Oligo CpG 2006, overnight, read-out: HEK/TLR9 IC50.
The mark [4] stands for this setting: read-out: IC50 in the primary HEK/TLR9 assay.

Where two headings read alike, the source gives them in different places.

For `CCNCCCOc1ccc(-c2nc3ccc(OCCCNCC)cc3o2)cc1` [Compound 33], the figures for the IC50 on human TLR9 (setting [3]) and against human TLR7 were 100 nM and 8520 nM, respectively.

Take `CCOCCN1CCN(CCCOc2ccc(-c3nc4ccc(OCCCN5CCN(CCOCC)CC5)cc4o3)cc2)CC1` [Compound 15]: the values for the IC50 (at human TLR9 (setting [3]); at human TLR7; in assay [1]) were 23.2 nM, 2240 nM and over 10000 nM, respectively.

On to `c1cc(N2CCN(CCCOc3ccc(-c4nc5ccc(OCCCN6CCN(c7ccncc7)CC6)cc5o4)cc3)CC2)ccn1` [Compound 19], for which the IC50 was found to be 27.6 nM at human TLR9 (setting [3]), 1100 nM on human TLR7 and 10000 nM in assay [1].

Turning to `O[C@H]1CC[C@H](NCCCOc2ccc(-c3nc4ccc(OCCCN[C@H]5CC[C@H](O)CC5)cc4o3)cc2)CC1` [Compound 6], the IC50 at human TLR9 (setting [3]) worked out at 20.2 nM; at human TLR7 it was 8410 nM.

Consider `COCCNCCCOc1ccc(-c2nc3ccc(OCCCNCCOC)cc3o2)cc1` [Compound 7], for which the IC50 was 23.3 nM on human TLR9 (setting [3]), 1310 nM against human TLR7 and over 10000 nM in assay [1].

As to `CN(C)[C@H]1CCN(CCCOc2ccc(-c3nc4ccc(OCCCN5CC[C@H](N(C)C)C5)cc4o3)cc2)C1` [Compound 17], the IC50 in assay [2] was 6 nM; at human TLR9 (setting [3]), 5.3 nM; on human TLR7, 170 nM; in assay [1], over 10000 nM.

As to `CN(C)CCCOCCCN(C)CCCOc1ccc(-c2nc3ccc(OCCCN(C)CCCOCCCN(C)C)cc3o2)cc1` [Compound 37], the IC50 on human TLR9 (setting [3]) was 30 nM; at human TLR7 it was over 2500 nM.

For the molecule `CC(C)(CN1CCOCC1)NCCCOc1ccc(-c2nc3ccc(OCCCNC(C)(C)CN4CCOCC4)cc3o2)cc1` [Compound 10], the IC50 in assay [2] was found to be 26 nM; at human TLR9 (setting [3]), 15.3 nM; on human TLR7, 350 nM; in assay [1], 9800 nM.

As for `CN(C)CCOCCN(C)CCCOc1ccc(-c2nc3ccc(OCCCN(C)CCOCCN(C)C)cc3o2)cc1` [Compound 36], the IC50 at human TLR9 (setting [3]) was 38 nM; at human TLR7, over 2500 nM.

In the case of `COCCN(C)CCCOc1ccc(-c2nc3ccc(OCCCN(C)CCOC)cc3o2)cc1` [Compound 18], the IC50 at human TLR9 (setting [3]) was found to be 19.2 nM; on human TLR7 it was 1400 nM; in assay [1], 9900 nM.

As to `C1=CCN(CCCOc2ccc(-c3nc4ccc(OCCCN5CC=CCC5)cc4o3)cc2)CC1` [Compound 28], the IC50 was 12.5 nM on human TLR9 (setting [3]), 1550 nM against human TLR7 and over 10000 nM in assay [1].

With `c1cc(-c2nc3ccc(OC4CCNC4)cc3o2)ccc1OC1CCNC1` (stereo not shown) [Comparator, reference compound], the IC50 was 1020 nM in assay [2], 160 nM at human TLR9 (setting [4]) and 2690 nM against human TLR7.

Consider `CN(C)CCCNCCCOc1ccc(-c2nc3ccc(OCCCNCCCN(C)C)cc3o2)cc1` [Compound 9], for which the IC50 at human TLR9 (setting [3]) turned out to be 120 nM; on human TLR7 it was 9050 nM.

On to `CN(C)CCCOc1cccc(-c2nc3ccc(OCCCN(C)C)cc3o2)c1` [Compound 5], for which the values for the IC50 at human TLR9 (setting [3]) and at human TLR7 were 11 nM and 2000 nM, respectively.

`CN(C)CCCCCOc1ccc(-c2nc3ccc(OCCCCCN(C)C)cc3o2)cc1` [Compound 3]: the figures for the IC50 at human TLR9 (setting [3]) and against human TLR7 were 23 nM and 1400 nM, respectively.

As for `COC[C@@H]1CCCN1CCCOc1ccc(-c2nc3ccc(OCCCN4CCC[C@H]4COC)cc3o2)cc1` [Compound 25], the IC50 in assay [2] is 48 nM; at human TLR9 (setting [3]), 18.2 nM; in assay [1] it was over 10000 nM.

On to `CN(C)CCOc1ccc(-c2nc3ccc(OCCN(C)C)cc3o2)cc1` [Compound 1], for which the IC50 in assay [2] came to 290 nM; at human TLR9 (setting [3]), 31 nM; on human TLR9 (setting [4]), 60 nM; at human TLR7, 7800 nM.

Turning to `CN(C)CCCCN(C)CCCOc1ccc(-c2nc3ccc(OCCCN(C)CCCCN(C)C)cc3o2)cc1` [Compound 38], the IC50 on human TLR9 (setting [3]) is 34 nM; against human TLR7 it was over 2500 nM.

As for `CN(C)CCCOc1ccc2nc(-c3ccccc3OCCCN(C)C)oc2c1` [Compound 4], the IC50 worked out at 12 nM at human TLR9 (setting [3]) and 1800 nM against human TLR7.

Regarding `c1ccc(CNCCCOc2ccc(-c3nc4ccc(OCCCNCc5ccccn5)cc4o3)cc2)nc1` [Compound 8], the results for the IC50 (at human TLR9 (setting [3]); against human TLR7; in assay [1]) were 19.7 nM, 1230 nM and 7820 nM, respectively.

Regarding `c1cc(-c2nc3ccc(OCCCN4CCC[C@H]4CN4CCCC4)cc3o2)ccc1OCCCN1CCC[C@H]1CN1CCCC1` [Compound 24], the IC50 is 8 nM in assay [2], 6.4 nM on human TLR9 (setting [3]), 600 nM against human TLR7 and over 10000 nM in assay [1].

In the case of `CCN(C)CCCOc1ccc(-c2nc3ccc(OCCCN(C)CC)cc3o2)cc1` [Compound 21], the IC50 on human TLR9 (setting [3]) came out at 13.3 nM; against human TLR7, 1240 nM; in assay [1], 9580 nM.
